Experimental data as given in publication PMC12257540, “From Inhibitors to PET: SAR-Based Development of [^18F]SK60 for mIDH1 Imaging” (Journal of Medicinal Chemistry, 2025).
Several values for one entry are separate records, joined by “and”; a condition that tells them apart may be missing. Equal entries are not always repeated.

Legend:
[1] = biological target: T1, IDH1R132H (Homo sapiens, UniProt O75874, R132H); experiment: Mutant IDH1 enzyme assay for determination of inhibitory potency (diaphorase/resazurin); type: biochemical; conditions: recombinant IDH1R132H, 30 min preincubation, 60 min reaction
T1 construct: purchased BPS Bioscience BPS-79376
Protocol: Determination of the activity and inhibition of mutant IDH1 recombinant protein, IDH1R132H, is based on the reduction of α-KG acid to D-2-HG accompanied by a concomitant oxidation of NADPH to NADP. The amount of NADPH remaining at the end of the reaction time is measured in a secondary diaphorase/resazurin reaction, in which the NADPH is consumed in a 1/1 molar ratio with the conversion of resazurin to the highly fluorescent resorufin. For the determination of the inhibitory potential of ligands, the IDH1R132H Assay Kit (BPS-79376, BPS Bioscience, San Diego, CA) was used. […] For inhibition assays, triplicate samples of the ligands in the concentration range from 10^–5 M to 10^–10 M were incubated with the enzyme for 30 min before the addition of α-KG and NADPH to initiate the reaction. The reaction ran for 60 min at room temperature and was terminated with the addition of 25 μL of detection buffer (36 μg/mL diaphorase and […] resazurin) to 50 μL of the reaction solution. The conversion of resazurin to resorufin by diaphorase was measured fluorometrically at Ex544/Em590 (Synergy H1 microplate reader, BioTek, Winooski, VT). The data were imported into GraphPad Prism 4.1 (GraphPad Inc.; La Jolla; CA), and the IC50 values were calculated with a standard dose–response curve fitting (Figure S2, SI).

[2] = biological target: T2, wtIDH1 (Homo sapiens, UniProt O75874); experiment: IDH1 enzyme assay for determination of inhibitory potency (diaphorase/resazurin); type: biochemical; conditions: 1 h preincubation, 1 h reaction
T2 construct: purchased abcam ab113858
Protocol: IDH1 enzyme assay is a modified version of the assay used for mIDH1. With the conversion of isocitrate to α-KG, this enzyme stoichiometrically converts NADP to NADPH. It produces NADPH, which directly couples to the diaphorase/resazurin system, and the resorufin production can be measured. The protocols for the determination of inhibition of IDH1 were performed as described by Wang et al. (2013). The IDH1 (ab113858) was purchased from abcam (Cambridge, UK).
Briefly, IDH1 assays were conducted in 50 μL buffer (20 mM TRIS buffer (pH = 7.5), 150 mM NaCl, 10 mM MgCl2, 0.05% BSA and 4 mM β-mercaptoethanol) containing 50 μM NADP, 70 μM DL-isocitrate, and 0.04 μg/mL IDH1 enzyme (reaction time 1 h at room temperature). For inhibition assays, triplicate samples of the ligands in the concentration range from 10^–4 M to 10^–10 M were incubated with the IDH1 for 1 h before the addition of DL-isocitrate and NADP to initiate the reaction together with the direct detection system comprised of 20 μg/mL diaphorase and 4 μM resazurin. The reaction was terminated with the addition of 25 μL of 2% SDS and read on a Synergy H1 microplate reader at Ex544/Em590. The data were imported into GraphPad Prism, and the IC50 values were calculated with a standard dose–response curve fitting (Figure S2, SI).

T1 sequence (O75874 whole entry R132H): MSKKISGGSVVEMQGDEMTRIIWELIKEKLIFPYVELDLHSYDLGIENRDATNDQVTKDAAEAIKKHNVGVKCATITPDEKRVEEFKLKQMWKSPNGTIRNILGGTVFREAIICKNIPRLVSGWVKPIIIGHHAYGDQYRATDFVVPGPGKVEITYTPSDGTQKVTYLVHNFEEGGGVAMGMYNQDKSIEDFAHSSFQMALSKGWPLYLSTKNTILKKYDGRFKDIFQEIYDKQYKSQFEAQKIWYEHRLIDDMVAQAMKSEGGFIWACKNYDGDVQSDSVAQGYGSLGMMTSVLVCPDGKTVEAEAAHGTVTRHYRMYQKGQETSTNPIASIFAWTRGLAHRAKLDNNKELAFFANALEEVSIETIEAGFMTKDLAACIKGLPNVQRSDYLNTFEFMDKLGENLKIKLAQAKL
T2 sequence (O75874 whole entry): as the sequence (O75874 whole entry R132H) above, with H132R counted along it

SMILES	IC50 [1]	IC50 [2]
CC1(C)CN(C(=O)c2ccc[nH]2)Cc2c(C(=O)Nc3ccccc3F)nn(Cc3ccc(F)cc3)c21 [Compound 27, 1-(4-fluorobenzyl)-N-(2-fluorophenyl)-7,7-dimethyl-5-(1H-pyrrole-2-carbonyl)-4,5,6,7-tetrahydro-1H-pyrazolo[4,3-c]pyridine-3-carboxamide]	0.196 µM	–
Cc1cccc(NC(=O)c2nn(Cc3ccc(F)cc3)c3c2CN(C(=O)C(C)(C)CF)CC3(C)C)c1 [Compound 60, 5-(3-fluoro-2,2-dimethylpropanoyl)-1-(4-fluorobenzyl)-7,7-dimethyl-N-(m-tolyl)-4,5,6,7-tetrahydro-1H-pyrazolo[4,3-c]pyridine-3-carboxamide]	1.3 µM	–
CC1(C)CN(C(=O)c2ccc[nH]2)Cc2c(C(=O)NC34CC5CC(CC(C5)C3)C4)nn(Cc3ccc(F)cc3)c21 [Compound 33]	0.163 ± 0.0396 µM	> 10 µM
CCCOCCNC(=O)c1nn(Cc2ccc(F)cc2)c2c1CN(C(=O)c1ccc[nH]1)CC2(C)C [Compound 39]	> 5 µM	> 10 µM
Cc1cccc(NC(=O)c2nn(CCCCF)c3c2CN(C(=O)c2ccc[nH]2)CC3(C)C)c1 [Compound 47, 1-(4-fluorobutyl)-7,7-dimethyl-5-(1H-pyrrole-2-carbonyl)-N-(m-tolyl)-4,5,6,7-tetrahydro-1H-pyrazolo[4,3-c]pyridine-3-carboxamide]	0.571 µM	> 10 µM
CC1(C)CN(C(=O)c2ccc[nH]2)Cc2c(C(=O)N3CCOCC3)nn(Cc3ccc(F)cc3)c21 [Compound 37]	> 10 µM	> 10 µM
CC1(C)CN(C(=O)c2ccc[nH]2)Cc2c(C(=O)Nc3cccnc3)nn(Cc3ccc(F)cc3)c21 [Compound 30, 1-(4-fluorobenzyl)-7,7-dimethyl-N-(pyridin-3-yl)-5-(1H-pyrrole-2-carbonyl)-4,5,6,7-tetrahydro-1H-pyrazolo[4,3-c]pyridine-3-carboxamide]	0.631 µM and 0.648 µM	> 10 µM

The next lines start with the values.

IC50 [1]	IC50 [2]	SMILES
0.0247 µM and 0.064 µM	> 10 µM	CC1(C)CN(C(=O)c2ccc[nH]2)Cc2c(C(=O)Nc3ccccc3)nn(Cc3ccc(F)cc3)c21 [Compound 23, 1-(4-fluorobenzyl)-7,7-dimethyl-N-phenyl-5-(1H-pyrrole-2-carbonyl)-4,5,6,7-tetrahydro-1H-pyrazolo[4,3-c]pyridine-3-carboxamide]
5.02 µM	> 10 µM	CC1(C)CN(C(=O)c2ccc[nH]2)Cc2c(C(N)=O)nn(Cc3ccc(F)cc3)c21 [Compound 42]
5.9 µM	> 10 µM	CC1(C)CN(C(=O)c2ccc[nH]2)Cc2c(C(=O)NC3CCCC3)nn(Cc3ccc(F)cc3)c21 [Compound 36]
> 1 µM	> 10 µM	CC1(C)CN(C(=O)c2ccc[nH]2)Cc2c(C(=O)N3CCCCC3)nn(Cc3ccc(F)cc3)c21 [Compound 35]
> 10 µM	> 10 µM	CN(C)C(=O)c1nn(Cc2ccc(F)cc2)c2c1CN(C(=O)c1ccc[nH]1)CC2(C)C [Compound 41]
